Assay results: ChEMBL document CHEMBL5653615 (J Biol Chem, 2013)

What was measured:
[1] = target: Serine/threonine-protein kinase PLK1 (Homo sapiens) (UniProt P53350); experiment: Inhibition of human PLK1 at 18.6 nM by HotSpot assay relative to control
[2] = target: Proto-oncogene tyrosine-protein kinase receptor Ret (Homo sapiens) (UniProt P07949); experiment: Inhibition of human RET at 18.6 nM by HotSpot assay relative to control
[3] = target: Tyrosine-protein kinase Srms (Homo sapiens) (UniProt Q9H3Y6); experiment: Inhibition of human SRMS at 18.6 nM by HotSpot assay relative to control
[4] = target: Angiopoietin-1 receptor (Homo sapiens) (UniProt Q02763); experiment: Inhibition of human TEK at 18.6 nM by HotSpot assay relative to control
Angiopoietin-1 receptor (Homo sapiens), sequence (Q02763 whole entry): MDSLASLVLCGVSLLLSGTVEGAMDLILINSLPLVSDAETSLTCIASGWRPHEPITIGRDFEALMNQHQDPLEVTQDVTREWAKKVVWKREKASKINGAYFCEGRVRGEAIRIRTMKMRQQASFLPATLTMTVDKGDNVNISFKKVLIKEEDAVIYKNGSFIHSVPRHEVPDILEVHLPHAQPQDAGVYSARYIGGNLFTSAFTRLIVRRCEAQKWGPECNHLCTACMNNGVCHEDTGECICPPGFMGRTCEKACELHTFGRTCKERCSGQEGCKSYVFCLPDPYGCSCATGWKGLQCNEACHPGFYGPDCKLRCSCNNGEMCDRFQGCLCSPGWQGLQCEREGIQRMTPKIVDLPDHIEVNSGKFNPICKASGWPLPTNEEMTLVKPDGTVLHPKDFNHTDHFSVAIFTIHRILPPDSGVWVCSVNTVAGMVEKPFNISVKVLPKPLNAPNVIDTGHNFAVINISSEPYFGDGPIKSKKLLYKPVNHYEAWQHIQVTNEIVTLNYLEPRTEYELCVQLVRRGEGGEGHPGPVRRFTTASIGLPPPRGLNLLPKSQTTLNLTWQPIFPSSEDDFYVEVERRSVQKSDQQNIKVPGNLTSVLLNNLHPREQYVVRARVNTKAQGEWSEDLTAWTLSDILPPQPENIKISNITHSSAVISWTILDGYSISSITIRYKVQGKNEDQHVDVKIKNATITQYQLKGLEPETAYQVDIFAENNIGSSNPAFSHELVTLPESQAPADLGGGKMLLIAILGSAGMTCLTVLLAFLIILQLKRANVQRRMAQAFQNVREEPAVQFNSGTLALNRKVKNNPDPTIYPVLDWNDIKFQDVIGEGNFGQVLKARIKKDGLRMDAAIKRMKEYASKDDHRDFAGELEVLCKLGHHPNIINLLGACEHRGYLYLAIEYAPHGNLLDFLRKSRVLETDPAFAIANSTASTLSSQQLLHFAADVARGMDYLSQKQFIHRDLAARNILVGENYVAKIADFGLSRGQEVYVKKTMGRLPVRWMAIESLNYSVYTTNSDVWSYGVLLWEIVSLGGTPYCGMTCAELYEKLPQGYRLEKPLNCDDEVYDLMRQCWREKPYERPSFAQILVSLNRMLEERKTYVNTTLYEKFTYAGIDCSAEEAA

[5] = target: T1, Beta-adrenergic receptor kinase 1 (Homo sapiens) (UniProt P25098); experiment: Inhibition of human GRK2 at 1.82 nM by HotSpot assay relative to control
T1 sequence (whole entry): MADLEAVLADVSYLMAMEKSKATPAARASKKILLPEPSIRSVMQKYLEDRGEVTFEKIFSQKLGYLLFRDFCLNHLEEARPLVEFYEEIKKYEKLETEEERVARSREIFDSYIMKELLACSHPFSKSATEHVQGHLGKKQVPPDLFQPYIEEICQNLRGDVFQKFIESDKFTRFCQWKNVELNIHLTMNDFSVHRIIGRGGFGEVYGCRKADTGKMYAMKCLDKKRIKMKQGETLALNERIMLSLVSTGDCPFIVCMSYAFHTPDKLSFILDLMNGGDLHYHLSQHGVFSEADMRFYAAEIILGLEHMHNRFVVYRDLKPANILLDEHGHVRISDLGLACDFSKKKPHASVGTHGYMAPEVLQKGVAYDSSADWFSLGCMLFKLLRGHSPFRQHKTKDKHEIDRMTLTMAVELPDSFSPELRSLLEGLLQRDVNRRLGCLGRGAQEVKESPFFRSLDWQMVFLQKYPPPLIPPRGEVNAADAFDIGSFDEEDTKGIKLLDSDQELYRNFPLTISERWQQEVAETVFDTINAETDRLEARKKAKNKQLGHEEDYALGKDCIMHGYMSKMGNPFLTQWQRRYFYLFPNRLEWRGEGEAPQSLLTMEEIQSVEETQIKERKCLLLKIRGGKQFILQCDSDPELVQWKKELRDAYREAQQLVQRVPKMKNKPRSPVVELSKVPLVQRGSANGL

[6] = target: Glycogen synthase kinase-3 alpha (Homo sapiens) (UniProt P49840); experiment: Inhibition of human GSK3a at 1.82 nM by HotSpot assay relative to control
[7] = target: Mitogen-activated protein kinase kinase kinase 11 (Homo sapiens) (UniProt Q16584); experiment: Inhibition of human MAP3K11 at 1.82 nM by HotSpot assay relative to control
Mitogen-activated protein kinase kinase kinase 11 (Homo sapiens), sequence (Q16584 whole entry, looked up): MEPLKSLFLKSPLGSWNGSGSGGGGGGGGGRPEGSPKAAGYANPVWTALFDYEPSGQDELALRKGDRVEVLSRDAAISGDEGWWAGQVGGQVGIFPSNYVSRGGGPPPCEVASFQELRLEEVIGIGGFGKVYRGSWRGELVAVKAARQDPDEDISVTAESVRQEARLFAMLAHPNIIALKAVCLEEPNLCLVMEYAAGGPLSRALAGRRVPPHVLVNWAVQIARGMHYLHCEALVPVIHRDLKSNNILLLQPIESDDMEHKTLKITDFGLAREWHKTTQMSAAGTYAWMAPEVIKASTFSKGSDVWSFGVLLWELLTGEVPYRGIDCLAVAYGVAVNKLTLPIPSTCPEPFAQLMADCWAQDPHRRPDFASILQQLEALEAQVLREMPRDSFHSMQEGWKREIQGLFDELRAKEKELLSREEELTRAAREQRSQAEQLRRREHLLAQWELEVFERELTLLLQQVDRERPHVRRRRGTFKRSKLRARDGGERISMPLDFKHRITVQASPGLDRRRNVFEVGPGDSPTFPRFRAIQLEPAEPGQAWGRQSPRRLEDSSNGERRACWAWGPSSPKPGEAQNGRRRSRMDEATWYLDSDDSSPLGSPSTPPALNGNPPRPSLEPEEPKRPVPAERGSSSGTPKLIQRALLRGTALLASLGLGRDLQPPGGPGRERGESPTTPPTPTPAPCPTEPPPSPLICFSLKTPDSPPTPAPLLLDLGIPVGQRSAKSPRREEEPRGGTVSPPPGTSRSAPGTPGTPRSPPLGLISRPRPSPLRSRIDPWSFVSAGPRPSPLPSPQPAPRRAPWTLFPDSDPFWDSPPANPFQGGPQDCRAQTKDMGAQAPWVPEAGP

[8] = target: T2, Serine/threonine-protein kinase Nek1 (Homo sapiens) (UniProt Q96PY6); experiment: Inhibition of human NEK1 at 1.82 nM by HotSpot assay relative to control
T2 sequence (whole entry): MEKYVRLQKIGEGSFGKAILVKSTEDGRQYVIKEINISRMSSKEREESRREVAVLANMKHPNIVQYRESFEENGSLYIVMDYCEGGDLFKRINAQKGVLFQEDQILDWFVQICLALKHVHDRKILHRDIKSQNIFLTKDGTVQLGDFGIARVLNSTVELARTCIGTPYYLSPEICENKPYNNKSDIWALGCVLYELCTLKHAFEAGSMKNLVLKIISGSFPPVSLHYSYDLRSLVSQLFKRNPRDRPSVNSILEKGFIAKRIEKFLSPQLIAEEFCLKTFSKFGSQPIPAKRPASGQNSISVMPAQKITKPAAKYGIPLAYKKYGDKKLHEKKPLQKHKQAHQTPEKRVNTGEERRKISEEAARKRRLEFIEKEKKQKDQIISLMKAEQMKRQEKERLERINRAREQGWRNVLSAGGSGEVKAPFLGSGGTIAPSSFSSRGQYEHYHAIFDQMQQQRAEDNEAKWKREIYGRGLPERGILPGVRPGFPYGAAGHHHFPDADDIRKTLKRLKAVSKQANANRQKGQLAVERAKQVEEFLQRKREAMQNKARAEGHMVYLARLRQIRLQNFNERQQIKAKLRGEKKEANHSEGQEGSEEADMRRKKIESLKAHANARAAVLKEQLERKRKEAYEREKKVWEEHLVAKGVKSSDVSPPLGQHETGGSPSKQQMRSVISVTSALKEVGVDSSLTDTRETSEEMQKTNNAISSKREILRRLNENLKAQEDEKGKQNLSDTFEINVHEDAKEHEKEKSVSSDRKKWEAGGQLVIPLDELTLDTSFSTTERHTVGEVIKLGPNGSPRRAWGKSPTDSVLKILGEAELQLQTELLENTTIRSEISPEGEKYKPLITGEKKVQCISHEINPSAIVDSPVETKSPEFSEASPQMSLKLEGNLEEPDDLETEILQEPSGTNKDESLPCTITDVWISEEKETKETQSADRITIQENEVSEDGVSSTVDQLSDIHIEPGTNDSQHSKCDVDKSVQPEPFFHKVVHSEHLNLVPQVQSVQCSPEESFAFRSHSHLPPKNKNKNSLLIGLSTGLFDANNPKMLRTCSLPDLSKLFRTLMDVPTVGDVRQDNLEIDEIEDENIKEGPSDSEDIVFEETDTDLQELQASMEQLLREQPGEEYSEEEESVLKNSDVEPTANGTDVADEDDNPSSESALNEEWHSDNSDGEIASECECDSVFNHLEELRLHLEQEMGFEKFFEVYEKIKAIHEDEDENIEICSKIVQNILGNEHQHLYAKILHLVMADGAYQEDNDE

[9] = target: Platelet-derived growth factor receptor beta (Homo sapiens) (UniProt P09619); experiment: Inhibition of human PDGFRb at 1.82 nM by HotSpot assay relative to control
Platelet-derived growth factor receptor beta (Homo sapiens), sequence (P09619 whole entry): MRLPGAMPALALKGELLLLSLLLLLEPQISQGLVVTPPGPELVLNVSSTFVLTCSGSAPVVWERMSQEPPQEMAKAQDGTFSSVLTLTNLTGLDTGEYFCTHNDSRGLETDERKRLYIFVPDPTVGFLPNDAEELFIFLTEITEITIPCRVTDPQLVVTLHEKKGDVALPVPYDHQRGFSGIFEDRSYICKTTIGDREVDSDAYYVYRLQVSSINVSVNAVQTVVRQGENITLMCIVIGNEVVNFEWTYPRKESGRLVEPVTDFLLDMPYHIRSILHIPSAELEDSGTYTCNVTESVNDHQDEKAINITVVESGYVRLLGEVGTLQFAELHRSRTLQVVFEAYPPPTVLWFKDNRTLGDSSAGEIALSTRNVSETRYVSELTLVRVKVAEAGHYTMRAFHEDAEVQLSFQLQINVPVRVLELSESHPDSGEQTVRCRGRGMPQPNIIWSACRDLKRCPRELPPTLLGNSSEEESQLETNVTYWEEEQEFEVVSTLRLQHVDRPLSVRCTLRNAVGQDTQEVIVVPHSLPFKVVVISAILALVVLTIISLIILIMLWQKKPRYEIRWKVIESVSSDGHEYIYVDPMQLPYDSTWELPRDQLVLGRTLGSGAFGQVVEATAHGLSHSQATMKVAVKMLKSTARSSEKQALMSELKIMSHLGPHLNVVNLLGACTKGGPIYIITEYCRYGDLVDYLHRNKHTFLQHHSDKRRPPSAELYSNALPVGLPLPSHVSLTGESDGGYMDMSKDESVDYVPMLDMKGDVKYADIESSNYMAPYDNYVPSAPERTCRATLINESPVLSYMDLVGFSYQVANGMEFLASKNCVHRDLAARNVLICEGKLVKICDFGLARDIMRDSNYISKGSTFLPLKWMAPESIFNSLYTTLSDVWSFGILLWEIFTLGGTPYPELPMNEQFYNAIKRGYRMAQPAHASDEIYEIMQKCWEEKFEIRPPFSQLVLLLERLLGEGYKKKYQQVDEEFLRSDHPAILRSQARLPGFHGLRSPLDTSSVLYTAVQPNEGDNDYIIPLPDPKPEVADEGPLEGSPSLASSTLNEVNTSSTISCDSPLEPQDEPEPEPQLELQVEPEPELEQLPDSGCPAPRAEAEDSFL

Serine/threonine-protein kinase PLK1 (Homo sapiens), sequence (P53350 whole entry): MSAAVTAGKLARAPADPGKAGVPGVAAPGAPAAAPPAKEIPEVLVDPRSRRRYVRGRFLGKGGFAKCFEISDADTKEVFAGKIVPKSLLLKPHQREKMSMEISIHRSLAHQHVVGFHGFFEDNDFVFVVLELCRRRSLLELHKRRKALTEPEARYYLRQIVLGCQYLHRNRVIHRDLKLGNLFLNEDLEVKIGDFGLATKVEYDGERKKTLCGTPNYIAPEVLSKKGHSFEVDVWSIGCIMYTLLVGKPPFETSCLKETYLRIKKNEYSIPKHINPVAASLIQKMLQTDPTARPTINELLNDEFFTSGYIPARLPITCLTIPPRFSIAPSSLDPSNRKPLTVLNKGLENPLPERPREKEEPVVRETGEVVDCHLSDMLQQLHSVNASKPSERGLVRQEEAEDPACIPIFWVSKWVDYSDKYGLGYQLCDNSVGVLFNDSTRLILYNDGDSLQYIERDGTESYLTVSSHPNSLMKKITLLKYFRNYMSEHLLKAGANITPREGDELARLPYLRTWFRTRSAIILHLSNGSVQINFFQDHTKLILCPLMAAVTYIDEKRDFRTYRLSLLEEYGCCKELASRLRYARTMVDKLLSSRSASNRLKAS
Proto-oncogene tyrosine-protein kinase receptor Ret (Homo sapiens), sequence (P07949 whole entry): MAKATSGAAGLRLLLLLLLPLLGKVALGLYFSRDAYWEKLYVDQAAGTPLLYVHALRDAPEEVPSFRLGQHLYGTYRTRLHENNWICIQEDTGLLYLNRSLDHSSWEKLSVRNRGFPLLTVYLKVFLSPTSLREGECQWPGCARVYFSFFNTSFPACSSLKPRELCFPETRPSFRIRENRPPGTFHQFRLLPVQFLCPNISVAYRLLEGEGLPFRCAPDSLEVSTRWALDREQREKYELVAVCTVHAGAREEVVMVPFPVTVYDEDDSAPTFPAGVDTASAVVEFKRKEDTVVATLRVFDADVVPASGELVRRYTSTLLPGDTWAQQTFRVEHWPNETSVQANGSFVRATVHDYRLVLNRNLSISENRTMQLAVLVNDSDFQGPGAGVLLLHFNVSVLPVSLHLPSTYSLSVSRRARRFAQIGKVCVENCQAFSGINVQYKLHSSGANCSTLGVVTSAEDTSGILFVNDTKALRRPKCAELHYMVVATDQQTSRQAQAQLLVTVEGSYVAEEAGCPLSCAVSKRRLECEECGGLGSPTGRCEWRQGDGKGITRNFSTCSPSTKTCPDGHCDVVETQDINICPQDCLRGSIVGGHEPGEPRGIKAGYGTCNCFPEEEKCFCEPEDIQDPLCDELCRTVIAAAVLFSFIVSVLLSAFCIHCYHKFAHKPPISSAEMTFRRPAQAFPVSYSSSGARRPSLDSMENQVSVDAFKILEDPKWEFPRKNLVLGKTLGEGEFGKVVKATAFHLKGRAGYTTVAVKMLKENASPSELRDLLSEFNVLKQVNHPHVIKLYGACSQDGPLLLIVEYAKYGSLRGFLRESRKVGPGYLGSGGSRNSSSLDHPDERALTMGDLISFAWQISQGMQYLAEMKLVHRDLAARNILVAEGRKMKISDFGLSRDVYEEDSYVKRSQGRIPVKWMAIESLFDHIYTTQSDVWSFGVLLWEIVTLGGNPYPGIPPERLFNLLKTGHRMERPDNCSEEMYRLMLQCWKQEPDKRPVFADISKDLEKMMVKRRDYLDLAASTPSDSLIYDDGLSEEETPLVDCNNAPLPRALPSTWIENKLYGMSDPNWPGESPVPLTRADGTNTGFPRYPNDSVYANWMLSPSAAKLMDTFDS

| SMILES | inhibition [1] [%] | inhibition [2] [%] | inhibition [3] [%] | inhibition [4] [%] | inhibition [5] [%] | inhibition [6] [%] | inhibition [7] [%] | inhibition [8] [%] | inhibition [9] [%] |
| --- | --- | --- | --- | --- | --- | --- | --- | --- | --- |
| C[C@]1(O)C[C@@H](c2nc(-c3ccc4ccc(-c5ccccc5)nc4c3)c3c(N)nccn32)C1 | -7.65 | 15.8 | -0.53 | 2.86 |  |  |  |  |  |
| C[C@@]1(C(=O)Nc2ccc(F)nc2)CCCN1c1nc(Nc2cc(C3CC3)n[nH]2)c2cccn2n1 |  |  |  |  | -0.25 | 4.1 | 2.47 | -2.03 | 10.8 |
